Measured values: PMC7243115, “Evaluation of the Anti-Tumor Activity of Small Molecules Targeting Eph/Ephrins in APC ^min/J Mice” (Pharmaceuticals, 2020)
Values joined by “and” are separate entries in the source; they are usually repeats but may differ in a detail not shown here. Identical values can stand only once.

Key:
[1] = cited from earlier work
[2] = system: adenomas in APC ^min/J mice; experiment: Intestinal tumorigenesis model: number and diameter of adenomas (histological analysis); assay type: in vivo
Method: UniPR129, UniPR139 and UniPR1331 were tested in an animal model of intestinal tumorigenesis, based on the usage of APC ^min/J mice, which spontaneously develop multiple and large adenomas over intestinal tract due to a gene mutation. […] Five weeks old mice have been treated with the three compounds at 30 mg/kg dose for 8 weeks every other day following previous observations. The weight of the mice has been monitored from the beginning of the treatment until the end of the study to follow the course of the disease and to detect potentially toxic effects of compounds.
(§1) 5 weeks old C57BL/6J-APC ^min/J male mice were purchased from Jackson Laboratory (Bar Harbor, ME USA). Mice were weighted and randomly subdivided in four groups: • Control group: Oral administration of Methocel 0.5% every other day; • Three treatment groups: oral administration of UniPR129, UniPR139 or UniPR1331 30 mg/kg in Methocel 0.5% every other day.
(§2) The experiment was carried out for 8 weeks and over this period the weight was monitored once a week. At the end of the experiment, all mice were sacrificed by carbon dioxide inhalation and blood samples were collected via intracardiac […] and used for evaluation of hematological parameters.
The whole intestine of all the mice was resected, washed with sterile PBS and fixed with 4% formalin. After 24 h, the intestine was longitudinally divided in 6 portions (1-duodenum, 2-jejunum, 3-ileum, 4-caecum, 5-colon, 6-rectum) and each portion was embedded in paraffin and sectioned at 5 μm with microtome (Leica). Slides were dried at 37 °C for 24 h, then deparaffinized in xylene, rehydrated with decreasing concentration of alcohol and stained with hematoxylin and eosin.
Histological slides were examined with Nikon Eclipse E800 microscope (Nikon Corporation, Japan) and photographs of sections were taken at 2x with Camera Nikon DIGITAL SIGHT attached to the microscope. The observation of longitudinal sections of the small intestine allowed to determine the distribution and number of adenomatous lesions; four longitudinal sections have been prepared for each segment of small intestine. The microscopic images of the ileum have been subsequently analyzed, using the ImageJ software, to determine the diameter and area of each adenoma.

APC ^min/J mice = assay type: in vivo; settings: 30 mg/kg oral every other day, 8 weeks
Method: UniPR129, UniPR139 and UniPR1331 were tested in an animal model of intestinal tumorigenesis, based on the usage of APC ^min/J mice, which spontaneously develop multiple and large adenomas over intestinal tract due to a gene mutation.
as §1, §2
Hematological and blood chemistry parameters were undergone to one-way ANOVA to compare control group to treatment groups.

[3] = of the total number of adenomas in the ileum section

C[C@H](CCC(=O)N[C@H](CC(=O)O)Cc1c[nH]c2ccccc12)[C@H]1CC[C@H]2[C@@H]3CC[C@@H]4C[C@H](O)CC[C@]4(C)[C@H]3CC[C@]12C [UniPR129]
bioavailability after oral administration [1]: not be bioavailable after oral administration | first pass hepatic metabolism [1]: extensive first pass hepatic metabolism | efficacy in the model of intestinal tumorigenesis ([2]; 30 mg/kg oral every other day, 8 weeks): the only compound to show positive results | Ileum Adenomas, Mean (number) ([2]; 30 mg/kg oral every other day, 8 weeks, n = 7, CTR 13.14): 7.57 ± 2.07 and 7.57 | Overall Intestine Adenomas, Mean (number) ([2]; 30 mg/kg oral every other day, 8 weeks, n = 7, CTR 19.71): 14.00 | reduction of the formation of adenomas in the ileum ([2]; 30 mg/kg oral, 8 weeks, vs control): 1.6 times | mean adenoma diameter in the ileum ([2]; 30 mg/kg oral, ± 0.28 (SD), control 0.94 mm ± 0.39 (SD)): 0.71 mm | number of medium adenomas (1 to 1.5 mm) in the ileum ([2]; 30 mg/kg oral, ± SD, CTR 29 ± 2.5): 11 ± 1.3 | Percentage of adenomas, class Large (1.5 to 2 mm) [2, 3]: 0% | Percentage of adenomas, class Medium (1 to 1.5 mm) [2, 3]: 21% | Percentage of adenomas, class Small (0.5 to 1 mm) [2, 3]: 51% | Percentage of adenomas, class Very Large (> 2 mm) [2, 3]: 0% | Percentage of adenomas, class Very Small (< 0.5 mm) [2, 3]: 28% | tolerability (APC ^min/J mice): well tolerated | ALT (APC ^min/J mice; mean ± SD, n = 7): 23.43 ± 3.78 UI | AST/GOT (APC ^min/J mice; mean ± SD, n = 7): 108.86 ± 47.11 UI | Basophils (APC ^min/J mice; mean ± SD, n = 7): 0.00 ± 0.00% | Creatinine (APC ^min/J mice; mean ± SD, n = 7): 0.22 ± 0.08 mg/dL | Eosinophils (APC ^min/J mice; mean ± SD, n = 7): 0.10 ± 0.10% | Glucose (APC ^min/J mice; mean ± SD, n = 7): 161.10 ± 21.18 mg/dL | Haematocrit (APC ^min/J mice; mean ± SD, n = 7): 26.69 ± 6.56% | Haemoglobin (APC ^min/J mice; mean ± SD, n = 7): 8.71 ± 2.15 g/dL | Lymphocytes (APC ^min/J mice; mean ± SD, n = 7): 93.29 ± 6.14% | Mean cellular Volume (APC ^min/J mice; mean ± SD, n = 7): 53.87 ± 2.62 fL | Mean platelet Volume (APC ^min/J mice; mean ± SD, n = 7): 4.91 ± 0.43 fL | Monocytes (APC ^min/J mice; mean ± SD, n = 7): 0.43 ± 0.31% | Neutrophils (APC ^min/J mice; mean ± SD, n = 7): 6.20 ± 6.33% | Platelets (APC ^min/J mice; mean ± SD, n = 7): 1191 ± 186.77 103/µL | Red cells (APC ^min/J mice; mean ± SD, n = 7): 5.01 ± 1.43 106/µL | Triglycerides (APC ^min/J mice; mean ± SD, n = 7): 145.10 ± 38.6 mg/dL | White cells (APC ^min/J mice; mean ± SD, n = 7): 4.83 ± 0.70 103/μL
